In US20230035127A1, “CULTURE AND DIFFERENTIATION OF PLURIPOTENT STEM CELLS” (University of Maryland, College Park, priority 2021, published 2023):
Entries after “also recorded” stand apart in the source; their conditions may differ.

Columns and labels:
human eiPSCs [1] = experiment: Flow cytometry of protein markers in eiPSC spheroids and cardiac spheroids; format: cell-based
Experimental: For flow cytometry, the eiPSC spheroids were collected on day 0 and the cardiac spheroids were collected on days 1.5, 2.5, 12.5, 15. The spheroids were dissociated to single cells by 0.25% trypsin for 5 min at 37° C. and then fixed with 75% ethanol at 4° C. overnight. The cells were permeabilized with 0.05% Triton X-100 for 3 min and then rinsed with 1×PBS twice. The cell numbers were adjusted to 1×10^6 cells/tube in 700 μL of saline for each marker. These cells were incubated with primary antibodies including OCT-4 (1:500 dilution, Cell Signaling Technologies), NANOG (1:500 dilution, Cell Signaling Technologies), SSEA-4 (1:500 dilution, Cell Signaling Technologies), BRACHYURY (1:500; Santa Cruz Biotechnology), NKX2.5 (1:500; Santa Cruz Biotechnology), cTnT (1:500 dilution, Cell Signaling Technologies), cTnI (1:500 dilution, Cell Signaling Technologies), α-ACTININ (1:500 dilution; Santa Cruz Biotechnology), MUSASHI-1 (1:500; R&D Systems), and TUJ-1 (1:500; R&D Systems) at 4° C. overnight. Subsequently, the samples were rinsed with 1×PBS thrice before incubation with corresponding secondary antibodies: goat anti-mouse IgG FITC and goat anti-rabbit IgG PE, respectively (1:1000; Invitrogen) for 1 h at RT. The samples were then rinsed with 1×PBS thrice before flow cytometry. The negative controls were the cells incubated with respective primary antibodies as aforementioned (no incubation with a secondary antibody).

human eiPSCs [2] = experiment: RNA sequencing of eiPSC spheroids and cardiac spheroids; format: cell-based; details: MO vs. MT (1 vs 10 μM RI), day 13.5
From the text: To investigate the mechanisms for the different outcomes when using different RI concentrations for culturing the eiPSC spheroids in 3D for cardiac differentiation, samples at various stages of the 3D culture and differentiation shown in FIG. 1 were collected and analyzed by RNA-sequencing (RNA-seq). The sample groups and their abbreviations are summarized in Table 1 including undifferentiated eiPSCs on day −2.5 (U), cardiac commitment on day 2.5 (C), cardiac maturation on day 13.5 (M), together with 2D monolayer colonies on day −4 (2D) as a common 2D undifferentiated control for both the 1 (one: […]) and 10 (ten: T) μM RI 3D culture. The raw data of RAN-seq were of high quality with an error rate of no more than 0.03%. […] Afterward, the gene expression level was calculated by the number of mapped reads, also known as fragments per kilobase of transcript per million mapped reads (FPKM). […]
For RNA sequencing (RNA-Seq), total RNA was extracted from the eiPSC clumps from 2D culture on day −4 (termed as 2D) and spheroids collected on day −2.5 after 1.5 days in the 3D culture (termed as UO and UT for 1 μM and 10 μM RI conditions, respectively), day 2.5 (termed as CO and CT), and day 13.5 (termed as MO and MT). […] The RNA concentration in the samples was measured with Nanodrop and the integrity and quality of RNAs in the samples were confirmed with the Nano RNA Bioanalyzer. […]

eiPSC spheroids = experiment: Teratoma assay of eiPSC spheroids injected subcutaneously into NOD/SCID mice; format: in vivo; details: eiPSC spheroids from 1 and 10 μM RI groups, day 0, s.c. in NOD/SCID mice
Experimental: To test the pluripotency of the cells in the 3D iPSC spheroids in vivo with the teratoma assay, the eiPSC spheroids were directly injected subcutaneously (s.c.) into the dorsal rear flank of severe combined immunodeficient mice (NOD.CB17-scid). A total of 2×10^6 cells in 300 μL of PBS was injected into each mouse (age: 5 weeks, and 5 mice per group). After 5 weeks, the mice were sacrificed, and the resulting teratoma were collected and fixed in 4% paraformaldehyde (PFA) for 3 days. Afterward, the samples were cut into small pieces of ˜0.5 cm^3, embedded in paraffin, and sectioned into slices of 5 μm thick. The slices were stained with hematoxylin and eosin (H&E) and imaged with a Zeiss LSM 710 microscope. All animal studies were approved by the Institutional Animal Care and Use Committee (IACUC, #R-MAY-18-24) at the University of Maryland, College Park.

## C[C@@H](N)[C@H]1CC[C@H](C(=O)Nc2ccncc2)CC1.Cl.Cl (relative stereo) [RI, (+)-(R)-trans-4-(1-aminoethyl)-N-(4-pyridyl) cyclo-hexanecarboxamide dihydrochloride]
Human eiPSCs [1]; 1 μM RI group versus 10 μM RI group, day 0
  expression of pluripotency markers OCT-4, NANOG, SSEA-4: significantly higher
Human eiPSCs [1]; 1 μM RI, cardiac spheroids day 12.5, dihydrochloride
  expression of neural-specific protein markers MUSASHI-1 and TUJ-1: negligible; also recorded: negative
Human eiPSCs [1]; 1 μM RI, day 1.5, after CHIR99021 and BIO for 1 day
  BRACHYURY-positive cells: ~100%
Human eiPSCs [1]; 1 μM RI, day 2.5, after XAV939 and KY02111
  NKX2.5 expression: ~100%
Human eiPSCs [1]; 1 μM RI, day 12.5
  cTnI-positive cells: 93.9%
  cells positive for sarcomere-related proteins including α-ACTININ and cTnI: more than 90%
  α-ACTININ-positive cells: 95%
Human eiPSCs [1]; 1 μM RI, eiPSC spheroids day 0
  expression of ectoderm marker NESTIN: negligible
Human eiPSCs [1]; 10 μM RI, eiPSC spheroids after four-day culture (day 0)
  expression of ectoderm marker NESTIN: 73.1%
Human eiPSCs [1]; RI from 1 to 5 to 10 μM, cardiac spheroids day 15, dihydrochloride
  percentage of cTnT-positive cells and mean intensity of cTnT fluorescence staining: decreased with the increase of the RI concentration; also recorded: decreases as the RI treatment concentration increases
Human eiPSCs [2]
  top 2 significantly down-regulated differentially expressed gene groups (GO enrichment): enriched to the forebrain and axon development
  top 18 significantly upregulated differentially expressed gene groups (GO enrichment): enriched to heart development, muscle system process, and the development of Z-disc and I band
eiPSC spheroids
  teratoma formation (pluripotency in vivo): forming teratomas consisting of tissues from all the three germ layers
